Results on seven compounds are retold here after article PMC11585590 (Nature Communications, 2024).

“Also recorded” adds a separate entry of the source. Peptide text beside a SMILES is read from it. * marks the point of attachment. Cbz = O=C(OCc1ccccc1)*

The target of data set [1] is T1, HiBiT-tagged WDR5 (Homo sapiens, UniProt P61964+Q9Y4B6). The data set is described as follows: Proteasome dependence: HiBiT-WDR5 level after 5 h with PROTAC 4 and/or MG132. It counts as cell-based. As to conditions: co-treatment with PROTAC 4 at 1.5 µM.
Data set [2] has as its target WDR5 (Homo sapiens, UniProt P61964). Put plainly: Western blot of WDR5 in MV4-11 cells, 1.5 μM PROTAC, 24 h. In kind it is cell-based.
The subject of data set [3] is MV4-11 cells expressing HiBiT WDR5. The data set is described as follows: ATPlite viability of MV4-11 cells expressing HiBiT WDR5, 24 h. It counts as cell-based. As to conditions: 2 nM to 10 μM.
For data set [4], the system named is WDR5. As to conditions: highest concentration of 7.5 µM, no hook effect; cited from earlier work.
In data set [5] the target is T1, HiBiT-tagged WDR5. The data set is described as follows: Exogenous HiBiT WDR5 degradation assay, 24 h. The conditions noted are these: for Dmax of exogenous HiBiT-WDR5 degradation: MV4-11 cells expressing HiBiT-tagged WDR5, 24 h; for Dmax: MV4-11, read-out: Dmax of exogenous HiBiT-WDR5 degradation, MV4-11 cells expressing HiBiT-tagged WDR5, 24 h. In kind it is cell-based.

Another data set has as its target endogenous WDR5 (Homo sapiens, UniProt P61964). Put plainly: Endogenous WDR5 degradation assay using ProteinSimple's Jess, 24 h. In kind it is cell-based. The conditions noted are these: for Dmax: MV4-11, read-out: Dmax of endogenous WDR5 degradation, parental MV4-11 cells, 24 h; for DC50: read-out: EC50 of endogenous WDR5 degradation.
Data set [6] has as its target DCAF1-PROTAC-WDR5 ternary complex (Homo sapiens, UniProt P61964+Q9Y4B6). The data set is described as follows: SPR ternary complex formation: PROTAC with 0.25 µM WDR5 on immobilized DCAF1. It counts as binding. As to conditions: WDR5 0.25 µM.
A further data set concerns the target DCAF1 (Homo sapiens, UniProt Q9Y4B6). The data set is described as follows: SPR ternary complex format: PROTAC alone on immobilized DCAF1. It counts as binding. The conditions noted are these: for Rmax: PROTAC alone, absence of WDR5; for koff: read-out: koff (1/s); for kon: read-out: kon (1/Ms).

T1 sequence (Q9Y4B6 whole entry, one chain of several): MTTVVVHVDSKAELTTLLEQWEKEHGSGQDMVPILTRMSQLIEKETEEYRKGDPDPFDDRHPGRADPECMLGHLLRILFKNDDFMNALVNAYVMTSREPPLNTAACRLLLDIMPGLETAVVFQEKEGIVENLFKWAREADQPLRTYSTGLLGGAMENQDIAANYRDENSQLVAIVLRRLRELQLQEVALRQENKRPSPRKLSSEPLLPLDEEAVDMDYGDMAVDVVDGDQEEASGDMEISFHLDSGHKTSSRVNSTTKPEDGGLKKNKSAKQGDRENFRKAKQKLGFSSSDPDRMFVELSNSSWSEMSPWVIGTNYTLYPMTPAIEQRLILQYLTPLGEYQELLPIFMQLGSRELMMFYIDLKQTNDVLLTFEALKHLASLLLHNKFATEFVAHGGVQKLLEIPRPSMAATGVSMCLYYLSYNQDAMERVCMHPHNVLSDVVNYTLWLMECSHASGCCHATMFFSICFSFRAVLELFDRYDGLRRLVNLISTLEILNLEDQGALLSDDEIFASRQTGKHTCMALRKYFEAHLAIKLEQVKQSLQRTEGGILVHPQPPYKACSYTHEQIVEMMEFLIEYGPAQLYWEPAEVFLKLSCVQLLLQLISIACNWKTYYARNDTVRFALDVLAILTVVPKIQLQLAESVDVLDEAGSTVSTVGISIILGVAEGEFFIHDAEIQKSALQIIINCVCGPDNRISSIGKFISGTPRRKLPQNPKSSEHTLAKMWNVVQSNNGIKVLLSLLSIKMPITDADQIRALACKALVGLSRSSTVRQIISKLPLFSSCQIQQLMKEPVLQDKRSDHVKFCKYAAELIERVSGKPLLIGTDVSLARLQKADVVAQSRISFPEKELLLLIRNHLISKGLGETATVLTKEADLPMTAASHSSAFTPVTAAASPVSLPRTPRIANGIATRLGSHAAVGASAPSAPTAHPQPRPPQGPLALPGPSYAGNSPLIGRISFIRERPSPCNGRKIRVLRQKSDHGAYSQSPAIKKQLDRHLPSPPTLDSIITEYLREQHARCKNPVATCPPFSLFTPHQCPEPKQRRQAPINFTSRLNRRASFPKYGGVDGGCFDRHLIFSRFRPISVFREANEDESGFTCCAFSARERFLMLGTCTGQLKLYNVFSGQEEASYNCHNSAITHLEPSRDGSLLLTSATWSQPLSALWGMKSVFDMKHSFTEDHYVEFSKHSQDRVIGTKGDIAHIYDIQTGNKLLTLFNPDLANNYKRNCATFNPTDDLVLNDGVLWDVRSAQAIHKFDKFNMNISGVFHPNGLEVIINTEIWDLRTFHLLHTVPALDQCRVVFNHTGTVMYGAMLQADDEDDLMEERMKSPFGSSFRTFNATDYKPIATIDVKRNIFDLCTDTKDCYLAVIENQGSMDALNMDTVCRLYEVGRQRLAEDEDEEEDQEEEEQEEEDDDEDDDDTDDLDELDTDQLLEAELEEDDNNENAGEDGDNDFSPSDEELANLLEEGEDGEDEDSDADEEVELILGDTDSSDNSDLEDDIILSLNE
Chain of DCAF1-PROTAC-WDR5 ternary complex (Q9Y4B6 1077-1390, one chain of several): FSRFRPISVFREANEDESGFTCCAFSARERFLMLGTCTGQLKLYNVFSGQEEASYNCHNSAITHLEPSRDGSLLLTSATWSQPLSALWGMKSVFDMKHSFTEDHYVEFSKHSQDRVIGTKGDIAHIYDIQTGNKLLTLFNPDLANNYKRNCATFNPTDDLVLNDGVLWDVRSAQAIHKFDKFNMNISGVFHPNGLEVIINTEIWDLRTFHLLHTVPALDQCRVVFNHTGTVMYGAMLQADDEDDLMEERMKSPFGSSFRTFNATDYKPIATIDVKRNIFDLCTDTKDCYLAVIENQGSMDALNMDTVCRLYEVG
Chain of DCAF1 (Q9Y4B6 1077-1390): as the sequence (Q9Y4B6 1077-1390, one chain of several) above

As to `CC(C)C[C@@H](C=O)NC(=O)[C@H](CC(C)C)NC(=O)[C@H](CC(C)C)NC(=O)OCc1ccccc1` [MG132] (Cbz-Leu-Leu-Leu-aldehyde), the “HiBiT-WDR5 level reached on rescue by MG132” value on HiBiT-tagged WDR5 [1] is given as “approximately 100%”.

As for `Cc1ncsc1-c1ccc([C@H](C)NC(=O)[C@@H]2C[C@@H](O)CN2C(=O)[C@@H](NC(=O)CNC(=O)c2ccc(F)c(-c3ccc(N4C[C@@H](C)N(C)[C@@H](C)C4)c(NC(=O)c4c[nH]c(=O)cc4C(F)(F)F)c3)c2)C(C)(C)C)cc1` [MS67, reference compound], the “WDR5 protein level by Western blot” value at WDR5 [2] was “significantly decreased; also recorded: comparable levels of WDR5 degradation”. Besides, in data set [3], the “toxicity / viability after 24 h (ATPlite)” value is reported as “displayed some toxicity”. In addition, the “Dmax of WDR5 degradation” value in the data set on WDR5 [4] is recorded as ~ 70%. In addition, the “Dmax of exogenous HiBiT-WDR5 degradation” value on HiBiT-tagged WDR5 [5] was found to be 78.7%.

Usually Dmax stands for the greatest extent of degradation seen. What is called Kd is the constant that tells how readily two partners part at equilibrium. The low end stands for higher affinity, the high end for lower affinity. Regarding `C[C@@H]1CN(c2ccc(-c3cc(C(=O)NCCOCCOCCOCCOCCNC(=O)/C=C/c4[nH]cc(C(=O)N[C@@H](CC(N)=O)c5ccc(F)c(Cl)c5)c4-c4ccc(Cl)cc4F)ccc3F)cc2NC(=O)c2c[nH]c(=O)cc2C(F)(F)F)C[C@H](C)N1C` [PROTAC 1], at endogenous WDR5, the Dmax stood at 23.5 ± 11.4%. Besides, the DC50 on endogenous WDR5 (parental MV4-11 cells, 24 h) amounted to 186 ± 89 nM. The “WDR5 protein level by Western blot” value at WDR5 [2] was “moderate WDR5 degradation”. The compound also registered an Rmax in data set [6] of 390. On DCAF1, the affinity, expressed as Kd, was 46 ± 0.4 nM; the Rmax was 101; the koff is 0.011 s⁻¹; the kon worked out at 249000 M⁻¹ s⁻¹. Moreover, on HiBiT-tagged WDR5 [5], the Dmax stood at 31.6 ± 5.5% and the “Dmax of exogenous HiBiT-WDR5 degradation” value is reported as 32%.

Take `C[C@@H]1CN(c2ccc(-c3cc(C(=O)NCCOCCOCCOCCOCCNC(=O)Cn4cc(-c5[nH]cc(C(=O)N[C@@H](CC(N)=O)c6ccc(F)c(Cl)c6)c5-c5ccc(Cl)cc5F)cn4)ccc3F)cc2NC(=O)c2c[nH]c(=O)cc2C(F)(F)F)C[C@H](C)N1C` [PROTAC 2]: the Dmax on endogenous WDR5 is 21.9 ± 11.1%; at HiBiT-tagged WDR5 [5], 41.2 ± 2.5%. Also, the DC50 at endogenous WDR5 (parental MV4-11 cells, 24 h) was 135 ± 6 nM. On WDR5 [2], the “WDR5 protein level by Western blot” value was “moderate WDR5 degradation”. Also, the values for the Rmax (in data set [6]; on DCAF1) were 621 and 106, respectively. This compound showed a Kd at DCAF1 of 38 ± 0.6 nM. In addition, on DCAF1, the koff is 0.008 s⁻¹.

With `C[C@@H]1CN(c2ccc(-c3cc(C(=O)NCCOCCOCCOCCOCCOCCOCCNC(=O)/C=C/c4[nH]cc(C(=O)N[C@@H](CC(N)=O)c5ccc(F)c(Cl)c5)c4-c4ccc(Cl)cc4F)ccc3F)cc2NC(=O)c2ccc(F)cc2C(F)(F)F)C[C@H](C)N1C` [PROTAC 3], the Dmax on endogenous WDR5 amounted to 33.4 ± 6.8%. For the same compound, at endogenous WDR5 (parental MV4-11 cells, 24 h), the DC50 was found to be 93 ± 37 nM. For the same compound, on WDR5 [2], the “WDR5 protein level by Western blot” value is reported as “moderate WDR5 degradation”. The same compound displayed an Rmax in data set [6] of 685. For the same compound, on DCAF1, the Kd is 48 ± 2.8 nM, the Rmax came to 42, the koff came out at 0.003 s⁻¹ and the kon came out at 69600 M⁻¹ s⁻¹. For the same compound, at HiBiT-tagged WDR5 [5], the Dmax was found to be 41.9 ± 4.5%.

Regarding `C[C@@H]1CN(c2ccc(-c3cc(C(=O)NCCOCCOCCOCCOCCOCCOCCOCCOCCOCCNC(=O)/C=C/c4[nH]cc(C(=O)N[C@@H](CC(N)=O)c5ccc(F)c(Cl)c5)c4-c4ccc(Cl)cc4F)ccc3F)cc2NC(=O)c2c[nH]c(=O)cc2C(F)(F)F)C[C@H](C)N1C` [PROTAC 4], the greatest degradation seen (Dmax) at endogenous WDR5 was 49.1%. Besides, on endogenous WDR5 (parental MV4-11 cells, 24 h), the “Dmax of endogenous WDR5 degradation” value is 49 ± 1.9% and the DC50 turned out to be 40 ± 24 nM. Further, on WDR5 [2], the “WDR5 protein level by Western blot” value is listed as “significantly decreased; also recorded: comparable levels of WDR5 degradation”. The “toxicity / viability after 24 h (ATPlite)” value in data set [3] is on record as “did not show a significant toxicity”. The same compound yielded an Rmax in data set [6] of 818. Besides, on DCAF1, the Kd was determined as 59 ± 0.9 nM, the Rmax turned out to be 102, the koff is 0.014 s⁻¹ and the kon amounted to 239000 M⁻¹ s⁻¹. On HiBiT-tagged WDR5 [5], the Dmax came to 73.8 ± 2.9%.

As for `C[C@@H]1CN(c2ccc(-c3cc(C(=O)NCCCNC(=O)/C=C/c4[nH]cc(C(=O)N[C@@H](CC(N)=O)c5ccc(F)c(Cl)c5)c4-c4ccc(Cl)cc4F)ccc3F)cc2NC(=O)c2c[nH]c(=O)cc2C(F)(F)F)C[C@H](C)N1C` [PROTAC 5], on endogenous WDR5 (MV4-11 cells), the “degradation of endogenous WDR5 in cells” value is listed as “did not degrade”. Besides, on HiBiT-tagged WDR5 [5] (MV4-11 cells), the “degradation of exogenous WDR5 in cells” value is reported as “did not degrade”.
